Columns and labels:
IL-2 and TNFα = test: ELISA cytokine secretion of Jurkat T-cells; assay type: cell-based, human; conditions: PMA/Ionomycin
Method: For measurement of cytokine secretion, 2×10^5 Jurkat T-cells or primary CD4^+ T-cells or human PBMCs per sample were seeded, treated with compound for 6 hours and stimulated as indicated. 20 hours after stimulation, supernatants were harvested and analyzed with the IL-2, IL-1β and TNFα Ready-Set-Go! ELISA (2nd Generation) kits provided by Affymatrix eBioscience.

Microsomal stability = assay type: in vitro ADME
Method: All ADME (plasma stability, plasma protein binding, microsomal stability, Log D, Caco-2 assay, CYP450 inhibition and hERG predictor assay) as well as pharmacokinetic studies (Tmax, Cmax, AUC0-240 min, Mean Residence Time, Elimination half life, Elimination rate constant, Volume of Distribution and Clearance) of C25-140 (compound 3) were conducted by Bienta Enamine Biology Services of Bienta/Enamine Ltd.

TRAF6 = biological target: T1, TRAF6 (Homo sapiens, UniProt Q9Y4K3); test: In vitro ubiquitination assay (Western blot), TRAF6 with Ubc13/Uev1a; assay type: biochemical
T1 construct: made in house
Method: The ability of TRAF6 to form K63-linked poly-ubiquitin chains in conjunction with Ubc13 was analyzed after compound treatment. Therefore, untagged TRAF6WT and TRAF6D57K, respectively were recombinantly purified. 0.125 μM of TRAF6 protein was pre-incubated with DMSO or compound in a total volume of 100 μL in K63 assay buffer (25 nM Tris-HCl pH 7.6; 250 nM MgCL2; […] creatine phosphate; 0.3 U/mL inorganic pyrophosphatase; 0.3 U/mL creatine phosphokinase) for 30 minutes at room temperature. Small aliquots for input samples were taken. A master mix containing 0.01 μM E1-activating enzyme (UBE1) (Boston Biochem), 0.2 μM E2-conjugating enzyme complex (Ubc13/Uev1a) (Boston Biochem), 1 mM ZnCl2, 2 mM ATP und 4 μM mono-ubiquitin (Boston Biochem) was added to the TRAF6 protein and the reaction mixture was incubated for 120 minutes at 37° C. The reaction was stopped by adding 4×SDS loading buffer and boiling at 95° C. for 5 minutes. The input samples were analyzed using the Pierce Silver Stain Kit (Thermo Fisher Scientific). Ubiquitination was detected in Western Blot analysis using an ubiquitin antibody.

MDM2 = biological target: T2, MDM2 (Homo sapiens, UniProt Q00987); test: In vitro ubiquitination assay, MDM2; assay type: biochemical; conditions: K48 chain formation
T2 construct: purchased Boston Biochem one of K-102, K-260, K-200B, K-220, K-240, K-270
Method: For analysis of clAP1, MDM2, TRIM63, RNF4, ITCH and E6AP mediated poly-ubiquitination, the respective ubiquitin ligase kit from Boston Biochem (K-102, K-260, K-200B, K-220, K-240 and K-270) was used. Here, reaction buffer, E1, E2 and E3 enzyme (and p53 substrate in case of MDM2) were mixed and pre-incubated with compound or DMSO for 5 minutes at room temperature before adding Mg^2+-ATP and mono-ubiquitin for reaction start. Ubiquitination was visualized by Western Blot analyses.

[1] = system: Diet-Induced-Obesity (DIO) mice; test: Diet-Induced-Obesity (DIO) mouse study; assay type: in vivo; conditions: 7.4 mg/kg IP once daily
Method: For MEF cells, 1.2×10^5 cells per sample were seeded, treated with compound for 6 hours and stimulated with either IL-1β or TNFα for 60 minutes. Jurkat T-cells and primary mouse CD4^+ T-cells were seeded at 2×10^5 cells per sample, also treated with compound for 6 hours and stimulated with PMA/lonomycin for 3 hours. RNA was isolated according to the manufacturer's protocol of the Qiagen RNeasy Kit (MEF cells) or the STRATEC INVITRAP® SPIN UNIVERSAL RNA MINI KIT (Jurkat T-cells). The isolation of mRNA from […] white adipose tissue from DIO mice was performed using TRIzol® Reagent according to manufacturer's instruction. To clear the isolated RNA from genomic DNA, samples (up to 5 μg RNA) were treated with RQ1 RNase-Free DNaseI (Promega) as described in the technical manual. For the reverse transcription of RNA into cDNA, the DNaseI digested RNA samples were processed using the SuperScript III First Strand cDNA Synthesis System (Invitrogen/ThermoFisher Scientific) following the manufacturer's protocol. Thereby, random hexamers provided with the kit were used for reverse transcription. cDNA samples were stored at −20° C. For quantification of cDNA in the samples, the LightCylcer480 (Roche) and the KAPA SYBR FAST qPCR Kit were used. For relative quantification, the ΔΔCp method first described by Pfaffl (Pfaffl, M. W., A new mathematical model for relative quantification in real-time RT-PCR. Nucleic Acids Res, 2001. 29(9): p. e45) was applied. The following primer were used for qRT-PCR:
Mice were fed a high-fat-diet until they reached a body weight of at least 40 g and developed […]. These mice were separated in control group and a group for C25-140 (compound 3) injection. Mice were treated every day with 14 μmol/kg (=7.4 mg/kg) C25-140 intraperitoneally for a period of 20 days. Thereby, C25-140 was dissolved in 2.9% DMSO, 1.5% Tween-80 and 1×PBS. Every day before injection, the body weight and food intake were measured. […]

[2] = system: Collagen-Induced Arthritis, DBA1/J mice; test: Collagen-Induced Arthritis (CIA) model; assay type: in vivo, mouse
Method: In order to test the potential of C25-140 to ameliorate RA symptoms, a Collagen-Induced Arthritis (CIA) Model in DBA1/J mice was performed by Washington Biotechnology, Inc. (Baltimore, USA). Each group of ten mice was subjected to a single subcutaneous injection of collagen/complete Freund's Adjuvant emulsion (0.05 ml/mouse; 100 μg collagen/CFA). After 20 days (day 21), mice were booster injected with collagen (0.05 ml/mouse; 100 μg/mouse collagen in Incomplete Freund's Adjuvant). On day 28, mice were scored for their Arthritic Index (AI) and 14 days intraperitoneally dosed twice daily with 6 mg/kg, 10 mg/kg and 14 mg/kg C25-140, respectively. Mice were scored of macroscopic signs of arthritis daily. Thereby, the following scoring index was applied to each individual paw: 0=no visible effects of arthritis; 1=edema and/or erythema of 1 digit; 2=edema and/or erythema of 2 digits; 3=edema and/or erythema of more than 2 digits; 4=severe arthritis of entire paw and digits. Single paw scores were added and recorded. On day 42, animals were euthanized, limbs were collected and histopathology was performed using Toluidine blue staining with scoring of several parameters.

T1 sequence (Q9Y4K3 50-159 limits assumed, species assumed): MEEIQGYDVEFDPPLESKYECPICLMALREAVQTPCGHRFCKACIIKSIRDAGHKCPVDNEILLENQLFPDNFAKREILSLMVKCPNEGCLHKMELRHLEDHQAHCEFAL
T2 sequence (Q00987 whole entry): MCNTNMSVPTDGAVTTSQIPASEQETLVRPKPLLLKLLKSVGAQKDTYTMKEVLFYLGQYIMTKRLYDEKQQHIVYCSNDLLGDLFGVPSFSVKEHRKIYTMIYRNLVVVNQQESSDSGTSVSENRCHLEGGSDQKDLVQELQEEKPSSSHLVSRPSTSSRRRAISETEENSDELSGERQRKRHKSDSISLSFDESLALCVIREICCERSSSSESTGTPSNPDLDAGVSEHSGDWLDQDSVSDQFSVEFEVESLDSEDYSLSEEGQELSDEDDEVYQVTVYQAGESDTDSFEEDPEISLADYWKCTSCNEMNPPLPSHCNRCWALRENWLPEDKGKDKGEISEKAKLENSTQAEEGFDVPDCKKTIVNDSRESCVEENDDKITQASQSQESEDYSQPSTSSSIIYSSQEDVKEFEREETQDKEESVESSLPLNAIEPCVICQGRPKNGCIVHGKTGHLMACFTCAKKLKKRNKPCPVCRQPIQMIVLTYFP

## Cc1nn(-c2ccc3nnc(C)n3n2)c(C)c1CCC(=O)N1CCC(Cc2ccccc2)CC1 [Compound 3, 1-(4-benzylpiperidin-1-yl)-3-(3,5-dimethyl-1-(3-methyl-[1,2,4]triazolo[4,3-b]pyridazin-6-yl)-1H-pyrazol-4-yl)propan-1-one]
IL-2 and TNFα
  cytokine secretion of IL-2 and TNFα: dose-dependently decreased
Microsomal stability
  microsomal stability: stable
TRAF6
  TRAF6 E3 ligase activity to form poly-ubiquitin chains: dose-dependently diminished
MDM2
  p53 ubiquitination by MDM2: not affected
[1]; 20 days
  body weight gain under high-fat-diet: hardly increased body weight
[1]; 20 days, vs vehicle
  food intake: did not differ
[1]; day 20
  IL-1β and VCAM mRNA in adipose tissue: significantly reduced
[2]; 10 mg/kg and 14 mg/kg IP twice daily, 14 days
  arthritic index (AI): almost completely ameliorated
[2]; 6, 10, 14 mg/kg IP twice daily
  histology of limbs (summed scores, inflammation, pannus, cartilage damage, bone resorption): dose-dependently improves
[2]; throughout the study
  body weight: did not show any signs of reduction
